Columns and labels:
RhlR [1] = target: T1, RhlR (Pseudomonas aeruginosa, UniProt P54292); assay: E. coli RhlR reporter antagonism assay vs 10 μM BHL (JLD271/pJN105R2/pSC11-rhlI*); format: cell-based, P. aeruginosa; conditions: for inhibition at 10 µM: read-out: % inhibition (10 μM), compound at 10 μM in the presence of 10 μM BHL; for inhibition at 1000 µM: read-out: % inhibition (1 mM), compound at 1 mM in the presence of 10 μM BHL; for RhlR antagonist activity in words: E. coli reporter vs 10 μM BHL
T1 construct: expressed in transfected cells; host or cells: E. coli JLD271 (ΔsdiA) with pJN105R2 (arabinose-induced) and pSC11-rhlI*
T1 sequence (P54292 whole entry): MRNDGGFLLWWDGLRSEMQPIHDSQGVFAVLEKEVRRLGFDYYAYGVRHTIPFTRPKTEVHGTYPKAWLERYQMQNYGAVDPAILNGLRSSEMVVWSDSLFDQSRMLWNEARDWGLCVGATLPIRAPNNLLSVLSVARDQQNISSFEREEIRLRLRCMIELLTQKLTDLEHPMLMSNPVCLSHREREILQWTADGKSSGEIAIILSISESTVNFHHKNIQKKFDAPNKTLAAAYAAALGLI
Protocol: (§1) All media and reagents for bacterial culture were purchased from commercial sources. Bacteria were cultured in Luria-Bertani broth (LB) at 37° C. with shaking at 200 rpm unless otherwise noted. The bacterial reporter strains used for this study were (i) the heterologous E. coli strain JLD271 (ΔsdiA) harboring the RhlR expression plasmid pJN105R2 and the rhlI-lacZ transcriptional fusion reporter pSC11-rhlI*, (ii) the heterologous E. coli strain JLD271 (ΔsdiA) harboring the LasR expression plasmid pJN105L and the […] transcriptional fusion reporter pSC11, and (iii) the P. aeruginosa strain PAO-JP2 (ΔlasrhlI) harboring the rhlI-gfp transcriptional fusion reporter prhlI-LVAgfp. Reporter strains JLD271/pJN105R2/pSC11-rhlI* and JLD271/pJN105L/pSC11 were grown in LB containing 100 μg/mL ampicillin and 10 μg/mL gentamicin. Freezer stocks of bacterial strains were maintained at −80° C. in 1:1 LB:50% glycerol.
To evaluate the modulatory activities of library compounds on RhlR and LasR using E. coli reporters, the strains JLD271/pJN105R2/pSC11-rhlI* and JLD271/pJN105L/pSC11 were used, respectively, as previously described.^38, 51 The following modifications were used in the RhlR agonism reporter assay, non-native compounds (10 μM or 1 mM) were compared to 1 mM BHL as the positive control. Briefly, a subculture was prepared by diluting an overnight culture 1:10 with fresh media containing 100 μg/mL ampicillin and 10 μg/mL gentamicin, and was incubated until it had grown to OD600=0.45. In all assays, L-arabinose was added to a final concentration of 4 mg/mL to induce RhlR expression. For RhlR agonism assays, activities of test compounds were measured relative to 1 mM BHL (the concentration required to induce a maximal level of RhlR activity). […] Activity was measured relative to 10 μM BHL. Inhibition was calculated by subtracting 100% from the relative activity value. Thus, 0% inhibition mimics represents no competitive displacement of 10 μM BHL by a test compound. In all assays, modifications were made to the standard Miller assay protocol to accommodate the use of the chlorophenol red-β-D-galactopyranoside (CPRG) β-galactosidase substrate. After cell lysis, 150 μL of the aqueous layer was transferred from each well of a solvent-resistant 96-well microtiter plate to the wells of a new clear, flat-bottom 96-well microtiter plate. CPRG (4 mg/mL in phosphate-buffered saline) was added to each well in 25 μL volumes. Plates were incubated at 30° C. until the positive control wells developed a red color (approximately 30 min). The amount of processed CPRG substrate was assessed by measuring the absorbance of each well at 570 nm. Enzymatic activity was calculated using the following equation: adjusted Miller units=1000·Abs570/(OD600·t·V),
(§2) where t is the incubation time of substrate with lysate and V is the volume of culture lysed.
The RhlR-modulatory activity of the J library compounds was assessed in a heterologous reporter strain (E. coli JLD271 harboring plasmids pJN105R2 and pSC11-rhlI*) in order to isolate the RhlR receptor from upstream QS regulation (e.g. regulation by LasR). Thus, the extent to which compounds were directly modulating RhlR could be determined. These assays were performed by incubating compound-treated, mid-log phase E. coli reporter cells in 96-well microtiter plates, followed by Miller assay evaluation of ß-galactosidase activity.
RhlR agonism and antagonism screens of each compound were performed initially at 10 μM.

RhlR [2] = target: T1, RhlR; assay: E. coli RhlR reporter agonism assay (JLD271/pJN105R2/pSC11-rhlI*); format: cell-based, P. aeruginosa; conditions: for RhlR agonist activity in words: single-concentration screen at 10 μM; for Emax: read-out: Maximum Activation (%); for RhlR agonist potency in words: dose-response
Protocol: as §1
To evaluate the modulatory activities of library compounds on RhlR and LasR using E. coli reporters, the strains JLD271/pJN105R2/pSC11-rhlI* and JLD271/pJN105L/pSC11 were used, respectively, as previously described.^38, 51 The following modifications were used in the RhlR agonism reporter assay, non-native compounds (10 μM or 1 mM) were compared to 1 mM BHL as the positive control. Briefly, a subculture was prepared by diluting an overnight culture 1:10 with fresh media containing 100 μg/mL ampicillin and 10 μg/mL gentamicin, and was incubated until it had grown to OD600=0.45. In all assays, L-arabinose was added to a final concentration of 4 mg/mL to induce RhlR expression. For RhlR agonism assays, activities of test compounds were measured relative to 1 mM BHL (the concentration required to induce a maximal level of RhlR activity). For RhlR antagonism assays, test compounds were competed against a concentration of BHL approximately equal to its EC50 value (10 μM). Activity was measured relative to 10 μM BHL. Inhibition was calculated by subtracting 100% from the relative activity value. Thus, 0% inhibition mimics represents no competitive displacement of 10 μM BHL by a test compound. In all assays, modifications were made to the standard Miller assay protocol to accommodate the use of the chlorophenol red-β-D-galactopyranoside (CPRG) β-galactosidase substrate. After cell lysis, 150 μL of the aqueous layer was transferred from each well of a solvent-resistant 96-well microtiter plate to the wells of a new clear, flat-bottom 96-well microtiter plate. CPRG (4 mg/mL in phosphate-buffered saline) was added to each well in 25 μL volumes. Plates were incubated at 30° C. until the positive control wells developed a red color (approximately 30 min). The amount of processed CPRG substrate was assessed by measuring the absorbance of each well at 570 nm. Enzymatic activity was calculated using the following equation: adjusted Miller units=1000·Abs570/(OD600·t·V),
as §2
Because LuxR-type receptors are often unstable in solution, preventing the use of in vitro assays to directly assess small molecule agonism and antagonism, reporter gene assays represent a standard method for screening small-molecule libraries for LuxR-type receptor modulation. Previously reported strains for this purpose were used in the current study.^38 Synthetic N-butanoyl L-homoserine lactone (BHL), the native ligand of RhlR, was used as the positive control for receptor activation. Commonly, agonists are measured relative to maximum possible receptor activation within a particular assay medium;^40 because the dose-response curve of BHL is distinctly shallow in these RhlR reporters, a high concentration of BHL is required to maximally activate RhlR. In this study, activation of compounds was measured relative to that elicited by 1 mM BHL (the concentration of BHL used causes no aberrant growth effects in the reporter strain). […]

[3] = negative = agonism stronger than 10 μM BHL alone
[4] = compound at 10 μM, RhlR activity relative to 1 mM BHL, E. coli reporter

## CCC(=O)N[C@H]1CCOC1=O [Compound C3-AHL]
RhlR [1]; [3]
  inhibition at 10 µM: -5%
  inhibition at 1000 µM: -66%
RhlR [2]; [4]
  activation at 10 µM: 25%
RhlR [2]; E. coli reporter
  RhlR agonist activity in words: comparably less active than their respective counterparts

## CCCCC(=O)N[C@H]1CCOC1=O [Compound C5-AHL]
RhlR [1]; [3]
  inhibition at 10 µM: -18%
  inhibition at 1000 µM: -91%
RhlR [2]
  EC50: 10.8 µM
  Emax: 80%
RhlR [2]; [4]
  activation at 10 µM: 53%
RhlR [2]; E. coli reporter
  RhlR agonist activity in words: comparable RhlR activation to that of BHL

## C=CCC(=O)N[C@H]1CCOC1=O [Compound J2]
RhlR [1]; [3]
  inhibition at 10 µM: 6%
  inhibition at 1000 µM: -110%
RhlR [2]; [4]
  activation at 10 µM: 39%
RhlR [2]; E. coli reporter
  RhlR agonist activity in words: comparably less active than their respective counterparts

## C=CCCCC(=O)N[C@H]1CCOC1=O [Compound J3]
RhlR [1]; [3]
  inhibition at 10 µM: -4%
  inhibition at 1000 µM: -69%
RhlR [2]; [4]
  activation at 10 µM: 41%

## C/C=C/CC(=O)N[C@H]1CCOC1=O [Compound J4]
RhlR [1]; [3]
  inhibition at 10 µM: 9%
  inhibition at 1000 µM: -47%
RhlR [2]; [4]
  activation at 10 µM: 21%

## C/C=C\CC(=O)N[C@H]1CCOC1=O [Compound J5]
RhlR [1]; [3]
  inhibition at 10 µM: -12%
  inhibition at 1000 µM: -74%
RhlR [2]
  EC50: 6.93 µM
  Emax: 80%
RhlR [2]; [4]
  activation at 10 µM: 52%
RhlR [2]; E. coli reporter
  RhlR agonist activity in words: activities statistically insignificant from native ligand BHL

## C#CCCC(=O)N[C@H]1CCOC1=O [Compound J7]
RhlR [1]; [3]
  inhibition at 10 µM: -7%
  inhibition at 1000 µM: -83%
RhlR [2]; [4]
  activation at 10 µM: 45%
RhlR [2]; E. coli reporter
  RhlR agonist activity in words: activities statistically insignificant from native ligand BHL

## C#CCCCC(=O)N[C@H]1CCOC1=O [Compound J8]
RhlR [1]; [3]
  inhibition at 10 µM: -2%
  inhibition at 1000 µM: -76%
RhlR [2]; [4]
  activation at 10 µM: 34%

## CC(C)C(=O)N[C@H]1CCOC1=O [Compound J17]
RhlR [1]; [3]
  inhibition at 10 µM: -30%
  inhibition at 1000 µM: -112%
RhlR [2]
  EC50: 4.89 µM
  Emax: 95%
RhlR [2]; [4]
  activation at 10 µM: 62%
RhlR [2]; E. coli reporter
  RhlR agonist potency in words: significantly more potent than BHL
  RhlR agonist activity in words: comparable RhlR activation to that of BHL

## CCC(C)C(=O)N[C@H]1CCOC1=O (some centres unmarked) [Compound J19]
RhlR [1]; [3]
  inhibition at 10 µM: -24%
  inhibition at 1000 µM: -101%
RhlR [2]
  EC50: 7.77 µM
  Emax: 95%
RhlR [2]; [4]
  activation at 10 µM: 55%
RhlR [2]; E. coli reporter
  RhlR agonist activity in words: comparable RhlR activation to that of BHL

## CC(C)(C)C(=O)N[C@H]1CCOC1=O [Compound J20]
RhlR [1]
  RhlR antagonist activity in words: capable of inhibiting RhlR activity to a statistically significant extent
RhlR [1]; [3]
  inhibition at 10 µM: 0%
  inhibition at 1000 µM: 25%
RhlR [2]; [4]
  activation at 10 µM: 1%
RhlR [2]; E. coli reporter
  RhlR agonist activity in words: inactive as agonists

## CCC(C)(C)C(=O)N[C@H]1CCOC1=O [Compound J21]
RhlR [1]; [3]
  inhibition at 10 µM: 3%
  inhibition at 1000 µM: 7%
RhlR [2]; [4]
  activation at 10 µM: 5%
RhlR [2]; E. coli reporter
  RhlR agonist activity in words: inactive as agonists

## CCC(CC)C(=O)N[C@H]1CCOC1=O [Compound J22]
RhlR [1]; [3]
  inhibition at 10 µM: 2%
  inhibition at 1000 µM: -66%
RhlR [2]; [4]
  activation at 10 µM: 28%

## O=C(N[C@H]1CCOC1=O)C1CC1 [Compound J23]
RhlR [1]; [3]
  inhibition at 10 µM: -2%
  inhibition at 1000 µM: -69%
RhlR [2]; [4]
  activation at 10 µM: 32%
RhlR [2]; E. coli reporter
  RhlR agonist activity in words: comparably less active than their respective counterparts

## O=C(CC1CC1)N[C@H]1CCOC1=O [Compound J25]
RhlR [1]; [3]
  inhibition at 10 µM: -47%
  inhibition at 1000 µM: -108%
RhlR [2]
  EC50: 2.76 µM
  Emax: 95%
RhlR [2]; [4]
  activation at 10 µM: 70%
RhlR [2]; E. coli reporter
  RhlR agonist potency in words: significantly more potent than BHL
  RhlR agonist activity in words: strong

## CC1(C(=O)N[C@H]2CCOC2=O)CC1 [Compound J27, 1-methyl-cylclopropanoyl AHL]
RhlR [1]
  RhlR antagonist activity in words: capable of inhibiting RhlR activity to a statistically significant extent
RhlR [1]; [3]
  inhibition at 10 µM: 2%
  inhibition at 1000 µM: 24%
RhlR [2]; [4]
  activation at 10 µM: 2%
RhlR [2]; E. coli reporter
  RhlR agonist activity in words: inactive

## CCCCCCCCCC(=O)CC(=O)N[C@H]1CCOC1=O [OdDHL, N-(3-oxododecanoyl) HL, reference compound]
RhlR [1]; compound at 10 μM in the presence of 10 μM BHL, negative = agonism stronger than 10 μM BHL alone
  % inhibition (10 μM): 18%
RhlR [1]; screened at a maximal concentration of 200 microM (solubility), in the presence of 10 μM BHL
  % inhibition at 200 µM: 53%
RhlR [2]; [4]
  % activation: 5%

## CCCC(=O)NC1CCOC1 (centres unmarked) [RN2]
RhlR [1]; [3]
  inhibition at 10 µM: -5%
  inhibition at 1000 µM: 20%
RhlR [2]; [4]
  activation at 10 µM: 0%
